From the NIST ThermoML archive (doi:10.1016/j.jct.2019.02.011)

Assay: xn = mol fraction of the nth substance listed
Conditions: 308.15 K, Liquid, Vibrating tube method

COC(=O)OC [dimethyl carbonate] + CO
mass density [kg/m3]
Conditions	15000 kPa	20000 kPa	25000 kPa	30000 kPa	35000 kPa	40000 kPa
x1 = 0.0253	–	809.72	814	817.9	821.58	825.25
x1 = 0.0503	–	823.06	827.34	831.25	834.92	838.6
x1 = 0.0745	–	835.38	839.68	843.59	847.26	850.9
x1 = 0.101	–	848.26	852.56	856.52	860.19	863.84
x1 = 0.1502	–	870.28	874.59	878.57	882.29	885.94
x1 = 0.2059	–	892.98	897.3	901.3	905.01	908.67
x1 = 0.25	–	909.44	913.77	917.78	921.49	925.16
x1 = 0.3004	–	926.71	931.05	935.06	938.77	942.45
x1 = 0.3426	–	940.07	944.37	948.39	952.1	955.78
x1 = 0.3984	952	956.44	960.75	964.78	968.49	972.13
x1 = 0.4514	966.27	970.72	975.04	979.08	982.78	986.43
x1 = 0.5054	979.62	984.08	988.4	992.45	996.15	999.81
x1 = 0.5509	990.08	994.54	998.87	1002.92	1006.62	1010.28
x1 = 0.6002	1000.49	1004.95	1009.29	1013.4	1017.09	1020.76
x1 = 0.6469	1009.68	1014.14	1018.48	1022.55	1026.24	1029.87
x1 = 0.6993	1019.27	1023.74	1028.03	1032.11	1035.8	1039.42
x1 = 0.7496	1027.93	1032.35	1036.65	1040.72	1044.41	1048.05
x1 = 0.799	1035.85	1040.27	1044.57	1048.66	1052.34	1055.98
x1 = 0.837	1041.64	1046.06	1050.37	1054.46	1058.14	1061.73
x1 = 0.9093	1052.1	1056.52	1060.79	1064.88	1068.56	1072.16
x1 = 0.9239	1054.13	1058.56	1062.82	1066.87	1070.55	1074.15
x1 = 0.9575	1058.69	1063.12	1067.39	1071.43	1075.12	1078.72
x1 = 0.9861	1062.46	1066.89	1071.16	1075.26	1078.94	1082.54
x1 = 1	1064.3	1068.73	1073	1077.1	1080.78	1084.38
